US9089509B2, “Method of treatment of age-related macular degeneration” (YEDA RESEARCH AND DEVELOPMENT CO., LTD., priority 2006, dated 2015)

Assays:
[1] = test system: neural stem/progenitor cells (NPCs) co-cultured with microglia; test: Co-culture of GFP-expressing neural progenitor cells with treated microglia, neurogenesis (GFP+/βIII-T+ cells); format: cell-based, mouse
Method: Coronal sections (2 mm thick) of tissue containing the subventricular zone of the lateral ventricle were obtained from the brains of adult C57Bl/6J mice. The tissue was minced and then incubated for digestion at 37° C., 5% CO2 for 45 min in Earle's balanced salt solution containing 0.94 mg/ml papain (Worthington, Lakewood, N.J.) and 0.18 mg/ml of L-cysteine and EDTA. After centrifugation at 110×g for 15 min at room temperature, the tissue was mechanically dissociated by pipette trituration. Cells obtained from single-cell suspensions were plated (3500 cells/cm^2) in 75-cm^2 Falcon tissue-culture flasks (BD Biosciences, San Diego, Calif.), in neural stem/progenitor cell (NPC)-culturing medium [Dulbecco's modified Eagles's medium (DMEM)/F12 medium (Gibco/Invitrogen, Carlsbad, Calif.) containing 2 mM L-glutamine, 0.6% glucose, 9.6 μg/ml putrescine, 6.3 ng/ml progesterone, 5.2 ng/ml sodium selenite, 0.02 mg/ml insulin, 0.1 mg/ml transferrin, 2 μg/ml heparin (all from Sigma-Aldrich, Rehovot, Israel), fibroblast growth factor-2 (human recombinant, 20 ng/ml), and epidermal growth factor (human recombinant, 20 ng/ml; both from Peprotech, Rocky Hill, N.J.)]. Spheres were passaged every 4-6 days and replated as single cells. Green fluorescent protein (GFP)-expressing NPCs were obtained as previously described (Pluchino et al., 2003).
Brains from neonatal (P0-P1) C57Bl/6J mice were stripped of their meninges and minced with scissors under a dissecting microscope (Zeiss, Stemi DV4, Germany) in Leibovitz-15 medium (Biological Industries, Kibbutz Beit Ha-Emek, Israel). After trypsinization (0.5% trypsin, 10 min, 37° C./5% CO2), the tissue was triturated. The cell suspension was washed in culture medium for glial cells [DMEM supplemented with 10% fetal calf serum (FCS; Sigma-Aldrich, Rehovot), L-glutamine (1 mM), sodium pyruvate (1 mM), penicillin (100 U/ml), and streptomycin ([…])] and cultured at 37° C./5% CO2 in 75-cm^2 Falcon tissue-culture flasks (BD Biosciences) coated with poly-D-lysine (PDL) (10 mg/ml; Sigma-Aldrich, Rehovot) in borate buffer (2.37 g borax and 1.55 g boric acid dissolved in 500 ml sterile water, pH 8.4) for 1 h, then rinsed thoroughly with sterile, glass-distilled water. Half of the medium was changed after 6 h in culture and every 2nd day thereafter, starting on day 2, for a total culture time of 10-14 days. […]

microglia = test: CD11c expression and morphology in primary culture of mouse microglia; format: cell-based; conditions: microglia, 10 ng/ml (FIGS. 8A-8D)
Method: Brains from neonatal (P0-P1) C57Bl/6J mice were stripped of their meninges and minced with scissors under a dissecting microscope (Zeiss, Stemi DV4, Germany) in Leibovitz-15 medium (Biological Industries, Kibbutz Beit Ha-Emek, Israel). After trypsinization (0.5% trypsin, 10 min, 37° C./5% CO2), the tissue was triturated. The cell suspension was washed in culture medium for glial cells [DMEM supplemented with 10% fetal calf serum (FCS; Sigma-Aldrich, Rehovot), L-glutamine (1 mM), sodium pyruvate (1 mM), penicillin (100 U/ml), and streptomycin ([…])] and cultured at 37° C./5% CO2 in 75-cm^2 Falcon tissue-culture flasks (BD Biosciences) coated with poly-D-lysine (PDL) (10 mg/ml; Sigma-Aldrich, Rehovot) in borate buffer (2.37 g borax and 1.55 g boric acid dissolved in 500 ml sterile water, pH 8.4) for 1 h, then rinsed thoroughly with sterile, glass-distilled water. Half of the medium was changed after 6 h in culture and every 2nd day thereafter, starting on day 2, for a total culture time of 10-14 days. Microglia were shaken off the primary mixed brain glial cell cultures (150 rpm, 37° C., 6 h) with maximum yields between days 10 and 14, seeded (10^5 cells/ml) onto PDL-pretreated 24-well plates (1 ml/well; Corning, N.Y., N.Y.), and grown in culture medium for microglia [RPMI-1640 medium (Sigma-Aldrich, Rehovot) supplemented with 10% FCS, L-glutamine (1 mM), sodium pyruvate (1 mM), β-mercaptoethanol ([…]), penicillin (100 U/ml), and streptomycin ([…])]. The cells were allowed to adhere to the surface of a PDL-coated culture flask (30 min, 37° C./5% CO2), and non-adherent cells were rinsed off.
Cover slips from co-cultures of NPCs and mouse microglia were washed with PBS, fixed as described above, treated with a permeabilization/blocking solution containing 10% FCS, 2% bovine serum albumin, 1% glycine, and 0.1% Triton X-100 (Sigma-Aldrich, Rehovot), and stained with a combination of mouse anti-[…] (anti-βIII-T) isoform C-terminus antibodies (1:500; Chemicon, Temecula, Calif.), rat anti-CD11b (MAC1; 1:50; BD—Pharmingen, Franklin Lakes, N.J.) and hamster anti-CD11c (1:100; eBioscience, San Diego, Calif.). To capture the microglia FITC- or Cy3-conjugated Bandeiraea simplicifolia isolectin B4 (IB-4; 1:50; Sigma-Aldrich, Rehovot) was used. To detect expression of human Aβ anti-Aβ (human amino-acid residues 1-17) (mouse, clone 6E10; Chemicon) was used.
On the basis of our previous findings, we suspected that the switch from a CD11b^+/CD11c^−/IGF-1^− to a CD11b^+/CD11c^+/IGF-I^+ microglial phenotype in the Cop-1 vaccinated Tg-AD mice might be attributable to IL-4. We examined this possibility in vitro. […] In contrast, the expression of CD11c induced by IL-4 was not transient. Quantification of the ability of IL-4 to induce CD11c expression even after the microglia were pretreated with Aβ is shown in FIG. 4D.
Thus, upregulation of CD11c on bone marrow derived myeloid cells by […] will allow the cells to reach injured sites and induce beneficial effect.

Row | Substance | effect of microglia activated by aggregated Aβ(1-40) on neurogenesis and NPC number ([1]; aggregated Aβ(1-40) 5 μM, 48 h pre-incubation, co-culture 10 days) | counteracting the negative effect of Aβ-activated microglia on NPC survival and differentiation ([1]; cytokine 10 ng/ml added for 48 h after 48 h aggregated Aβ(1-40) 5 μM) | numbers of GFP+/βIII-T+ cells in co-cultures of NPCs with activated microglia ([1]; microglia activated with 10 ng/ml, co-culture 10 days, vs microglia-free control) | time to peak of CD11c upregulation after activation (microglia) [days]
1 | Aβ(1-40): β-amyloid peptide fragment 1-40, aggregated | blocked neurogenesis and decreased the number of NPCs | – | – | –
2 | IFN-γ: recombinant mouse IFN-γ | – | failed to reverse their negative effect on neurogenesis | dramatic increase | 2 to 3
